Experimental data published in publication PMC12392461, “Beyond Estrogenicity: A Comparative Assessment of Bisphenol A and Its Alternatives in In Vitro Assays Questions Safety of Replacements” (Environmental Science & Technology, 2025).

Legend:
Estrogen Receptor ERα = target: T1, Estrogen Receptor ERα (Homo sapiens, UniProt P03372); experiment: cell-based; details: for EC10, linear / logEC10 / EC10, linear transformed: Bioassay ERα; for EC10, linear: linear model fit; for logEC10: log-logistic model fit; for ERα activation: at noncytotoxic concentrations; for EC10, ERα (M): 10% of maximum effect of E2; for SR-ScoreERα: SR-Score, sigma k=1, x=5; for EC10: ERα; for REPBPA: relative estrogenic potency vs BPA; for EC10, ERα: effect; for log(1/EC10) ERα: input of the ToxPi score, values up to 1.00
T1 sequence (P03372 311-547 limits assumed): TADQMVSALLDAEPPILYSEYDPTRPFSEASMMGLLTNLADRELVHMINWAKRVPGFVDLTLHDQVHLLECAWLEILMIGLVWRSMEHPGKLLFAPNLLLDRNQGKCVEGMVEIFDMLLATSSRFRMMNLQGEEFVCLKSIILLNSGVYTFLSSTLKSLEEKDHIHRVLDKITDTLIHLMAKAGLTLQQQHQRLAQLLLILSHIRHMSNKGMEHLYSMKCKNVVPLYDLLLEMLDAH
In short: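 ERα-UAS-bla GripTite and PPARγ-UAS-bla reporter cells were seeded in assay medium with 2% charcoal-stripped FBS and held 24 h at 37 °C before dosing. Viability came from IncuCyte confluency before and after exposure. EC10 used only concentrations below IC10; Emax% is the log-logistic curve maximum relative to the reference chemical.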

[1] = test system: HEK293H, HEK293T, H4IIe, MCF7 and SH-SY5Y cells; details: for cytotoxicity,median REPBPA,IC10: median IC10 relative to BPA; for IC10,Median (M): median cytotoxicity of all cell lines; for IC10, median: median cytotoxicity over all cell lines
Protocol: Cell culture conditions and bioassay protocols including response detection are provided in Text S2.1–2.4 and Table S3. − Cell viability was determined from cell confluency using an IncuCyte S3 Live-Cell Analysis System (Sartorius AG, Essen, Germany) before and after exposure, except for SH-SY5Y cells (live–dead staining with Nuclear Green LcS1 and propidium iodide, Abcam, UK). For metabolic activation experiments, cell viability was assessed using the ToxBLAzer DualScreen Kit (Thermo Fisher Scientific) to capture the remaining toxicity in ERα-UAS-bla GripTite after treatment with the aCYP catalyst (details in Text S2.4).
For ARE, the concentration that triggered an induction ratio of 1.5 (ECIR1.5) was used as the benchmark value, as detailed in Text S2.5. IC10 values also served as a threshold for data analysis in all assays; only concentrations below IC10 were considered when deriving EC10 or ECIR1.5.
TR indicates whether the cytotoxicity is triggered by specific toxicity mechanisms (TR ≥ 10) or not (0.1< TR< 10). 3 TR=IC10,baseline/IC10 We measured the cytotoxicity of BPA and its alternatives in HEK293H (PPARγ), HEK293T (ERα), H4IIe (AhR CALUX), MCF7 (ARE/MMP), and differentiated SH-SY5Y cells (Table S6). […]
medium, supplemented with 2% B-27 Supplement and 2 mM GlutaMAX Supplement. SH - SY5Y cells were differentiated with 10 µM all-trans retinoic acid prior to the assay.
S2.2: Cell Seeding and Incubation. For all bioassays, cell suspensions in the respective assay medium were dispensed into each well of 384-well plates using a MultiFlo Dispenser (Biotek, (now Agilent), Winooski, VT, U.S.). After seeding, the plates were incubated at 37° C and 5% CO₂ for […]. The final cell densities and plate types were as follows: Black poly-D-lysine […]
6500 cells/well, ERα: 5000 cells/well. White 384-well plates with a clear bottom (Product No.
NYC, U.S.) for AhR: 3250 cells/well. Black Collagen I coated plates were used (Product No.
S2.3: Chemical Dosing and Assay Analysis Procedures. The dosing procedure and high-throughput assay workflow have been described in detail before. 9 The dosing concentrations […]
Stock solutions were then either added directly to the respective cell culture medium or evaporated under nitrogen, followed by replenishment with fresh medium. The final solvent content in each well was kept below 1% for methanol, 0% for acetonitrile.
Dosing plates were prepared as 11 -step serial dilutions using a Hamilton Microlab Star robotic system (Hamilton, Bonaduz, Switzerland), and chemicals were dosed in duplicates by transferring 10 μL twice from the dosing plates to the cell plates . After quantifying cell confluency as described in S2. 4., the exposed cells were incubated at 37° C and 5% CO₂ for an additional 24 h. All chemicals were tested in all assays with at least three independent […]
S2.4: Cell Viability Measurement s and bioanalytical protocols . The confluency as a measure of cell viability was determined with an IncuCyte S3 Live -Cell Analysis System (Sartorius AG, Essen, Germany). With this method the confluency of cells in a microscopy image are normalized to control wells without cells and compared before and after 24 hours of exposure.
This method has been described previously 13. Cell viability of SH-SY5Y cells was measured […]
propidium iodide (PI, Abcam, Cambridge, U.K.).14 Nuclear Green LCS1 is a membrane-permeable dye that stains the nuclei of all cells, whereas PI only enters cells with compromised membrane integrity (non-viable cells). After staining, live cells show green nuclei without red fluorescence, while dead cells display both green and red nuclear fluorescence due to PI […]
intercalation. Cell viability was calculated as the proportion of green-only nuclei relative to the […]
For experiments with the preceding aCYP activation, ERα cell viability was additionally calculated from the readout of the ToxBLAzer reagent. The ToxBLAzer assay was conducted following the manufacturer's instructions (Thermo Fisher, Waltham, MA, U.S.).13 Fluorescence

[2] = Octanol-water partition constant (log Kow) measurement, Sirius T3 potentiometric log P; format: physicochemical; details: experimental, this study
Protocol: Physicochemical properties provide input parameters for the baseline toxicity model. Acidity constants (pK a) and octanol–water partition constants of the neutral species (K ow) were measured with a Sirius T instrument from Pion Inc. (Sussex, UK) (Text S1.2 and Table S1). A detailed description of the pK a and K ow measurements can be found in literature. , […]
S1.2: pKa and log Kow measurements […]
titrator (Pion Inc., Sussex, U.K.). […]
UV absorbance. For log Kow measurement, approximately 1 mg of test chemical was added to a sample vial and the measurement was done automatically via the potentiometric log P protocol. Briefly, each compound is titrated thrice in an immiscible biphasic system of octanol and phosphate buffer solution and pH is continuously recorded. The shift in p Ka -values was used to estimate the log Kow values.2, 3 Data processing was performed with Sirius T3 Refine software (version 2.0.0.0.), and the final p Ka and log Kow values were calculated as the average of three titrations. To ensure reproducibility, measurements were conducted on at least two

## Cc1ccc(S(=O)(=O)NC(=O)Nc2cccc(OS(=O)(=O)c3ccc(C)cc3)c2)cc1 [Pergafast, N-(p-toluenesulfonyl)-N'-(3-(p-toluenesulfonyloxy)phenyl)urea]
Estrogen Receptor ERα; dosing range all
  EC10, linear: no effect
  logEC10: no effect
Estrogen Receptor ERα
  ERα activation: did not activate ERα at noncytotoxic concentrations
[1]
  cytotoxicity,median REPBPA,IC10: 3.67
  IC10,Median (M): 1.91 × 10^–5 M
  IC10, median: 19.1 µM
[2]
  log Kow used: 4.11

## COC(=O)C(c1ccc(O)cc1)c1ccc(O)cc1 [Bz, Methyl bis(4-hydroxyphenyl)acetate]
Estrogen Receptor ERα
  EC10, ERα (M): 1.06 × 10^–6 M
  SR-ScoreERα: 1.00
  EC10, ERα: 1060 nM
  log(1/EC10) ERα: 0.76
Estrogen Receptor ERα; dosing range high, in M
  EC10, linear transformed: 1.23E-08
  EC10, linear: 7.84E-07
Estrogen Receptor ERα; dosing range high
  logEC10: -6.83
Estrogen Receptor ERα; dosing range low, in M
  EC10, linear transformed: 9.90E-07
  EC10, linear: 1.06E-06
Estrogen Receptor ERα; dosing range low
  logEC10: -6.00
Estrogen Receptor ERα; IC10/EC10
  SRcytotoxicity (ERα): 957
Estrogen Receptor ERα; This Study
  Efficacy %: 32.40%
  REPBPA: 3.49E-01
Estrogen Receptor ERα; This Study, in M
  EC10: 1.06E-06
Estrogen Receptor ERα; against baseline cytotoxicity
  Specificity ratio (SRbaseline) SRERα: 245.73
Estrogen Receptor ERα; against experimental cytotoxicity
  Specificity ratio (SRcytotoxicity) SRERα: 956.87
Estrogen Receptor ERα; read-out: Emax%ERα
  Emax: 32%
Estrogen Receptor ERα; relative to BPA
  Relative effect potency REPERα: 0.35
[1]
  cytotoxicity,median REPBPA,IC10: 0.19
  IC10,Median (M): 3.73 × 10^–4 M
  IC10, median: 373 µM
[2]
  log Kow used: 2.06

## Oc1ccc(C2(c3ccc(O)cc3)CCCCC2)cc1 [BPZ, 1,1'-Bis(4-hydroxyphenyl)cyclohexane]
[1]
  cytotoxicity,median REPBPA,IC10: 1.33
  IC10,Median (M): 5.28 × 10^–5 M
  IC10, median: 52.8 µM
[2]
  log Kow used: 4.64

## O=S(=O)(c1ccc(O)cc1)c1ccc(OCc2ccccc2)cc1 [BPS-MPE, 4-[4-(benzyloxy)benzenesulfonyl]phenol]
Estrogen Receptor ERα; dosing range all
  EC10, linear: no effect
  logEC10: no effect
Estrogen Receptor ERα
  ERα activation: did not activate ERα at noncytotoxic concentrations
[1]
  cytotoxicity,median REPBPA,IC10: 0.62
  IC10,Median (M): 1.12 × 10^–4 M
  IC10, median: 112 µM
[2]
  log Kow used: 4.28

## Oc1ccc(Sc2ccc(O)cc2)cc1 [BPT, 4,4'-Thiodiphenol]
Estrogen Receptor ERα
  EC10, ERα (M): 7.27 × 10^–7 M
  SR-ScoreERα: 1.00
  EC10, ERα: 727 nM
  log(1/EC10) ERα: 0.78
Estrogen Receptor ERα; dosing range all, in M
  EC10, linear transformed: 2.87E-07
  EC10, linear: 7.27E-07
Estrogen Receptor ERα; dosing range all
  logEC10: -6.54
Estrogen Receptor ERα; This Study, in M
  EC10: 7.27E-07
Estrogen Receptor ERα; This Study
  REPBPA: 5.09E-01
[1]
  cytotoxicity,median REPBPA,IC10: 0.74
  IC10,Median (M): 9.51 × 10^–5 M
  IC10, median: 95.1 µM
[2]
  log Kow used: 3.29
